Where a name gives a salt, the structure may show the parent alone. Read-outs that look alike come from different tables or passages of the source.
How the values were obtained:
human hepatocytes = test: in-vitro metabolism over human hepatocytes; conditions: 10 μM, up to 120 min at 37° C.
Experimental: (§4) Human, dog and rat cryopreserved hepatocytes (Celsis-IVT; n=10 pooled donors) were thawed according to the recommended protocol of the cell provider. Cells were then diluted to 1 million viable cells per mL, plated in a 96-well plate (100 μL per well), and pre-incubated 20 min at 37° C. under 95:5 O2:CO2 atmosphere. Following addition of test compounds (10 μM; 1 μL of 1 mM stock solution (95:5 acetonitrile/DMSO) per well), cells were incubated with lid on up to 120 min at 37° C. under 95:5 O2:CO2 atmosphere. At time points 0, 15, 60 and 120 min, 100 μL of acetonitrile containing an internal standard (1 μM labetalol) was added to quench incubates, and the plate was centrifuged (5 min; 15K rpm). Supernatant was diluted 1:2 with water and analyzed by HPLC-MS/MS (ESI-). The MS2 scan mode was used instead of the MRM mode, in order to manually extract the Extracted Ion Current (EIC) of two potential metabolites: 3-cyanobenzenesulfonate and sodium 3-sulfobenzoate.

Caco-2 cells = test: Caco-2 bidirectional permeability; assay type: in vitro ADME, human; conditions: for Efflux ratio: (Papp B − A)/(Papp A − B); for % Recovery A − B / Papp A − B: apical to basolateral; for % Recovery A − B / Papp A − B / % Recovery B − A / Papp B − A: 2-hr; for % Recovery B − A / Papp B − A: basolateral to apical; for Permeability: class from Papp A-B; for Significant Efflux: significant: efflux ratio above 3.0 and Papp B-A >1.0×10^−6 cm/s
From the text: (§1) Such a procedure helps understanding the suitability of the compound for oral dosing by measuring the rate of transport of the molecule across the Caco-2 cells, which have characteristics that resemble intestinal epithelial cells. Transport in both directions (apical to basolateral (A-B) and basolateral to apical (B-A)) across the cell monolayer was monitored over a 2-hr time period in order to evaluate the efflux ratio, an indicator of whether the compound undergoes significant active efflux or not. The permeability coefficient (Papp) is calculated from the equation: […]
(§2) Where dQ/dt is the rate of permeation of the drug across the cells, Co is the donor compartment concentration at time zero and A is the area of the cell monolayer. Co is obtained from analysis of the dosing solution at the start of the experiment. The analysis method used was LCMS quantification.
(§3) A permeability of (Papp A-B)<1.0×10^−6 cm/s is considered low, whereas a permeability of (Papp A-B)>1.0×10^−6 cm/s is considered high. A significant efflux is generally associated with an efflux ratio above 3.0 and a (Papp B-A)>1.0×10^−6 cm/s in these assay conditions.

dog hepatocytes = test: in-vitro metabolism over dog hepatocytes; conditions: 10 μM, up to 120 min at 37° C.
Experimental: as §4

[1] = quantification of counter-ion and metabolites in urine and feces of rats; assay type: in vivo; conditions: 500 mg/kg p.o., 48 hr collection
Experimental: A preliminary toxicological evaluation of the compound was done in 250-300 g male Sprague-Dawley rats. Animals were randomized into one of three dosing group, i.e. 250, 500 or 1,000 mg/kg administered by oral gavage. Following administration of the test article, animals were observed hourly for the first 8 hr post-dosing for clinical signs and twice daily thereafter until termination on Day 7. Three animals per group were sacrificed by exsanguination under general anesthesia at 24-hr post dosing or on Day 7 and a gross necropsy was performed in all animals. Additionally, all three rats having received the 500 mg/kg dose and scheduled for sacrifice on Day 7 were placed in individual metabolic cages immediately following test article administration, in order to collect feces and urine during 48 hr. Blood samples were collected terminally from each rat for hematology and serum chemistry evaluation.
After proper urine and feces samples preparation, trimebutine 3-thiocarbamoyl-benzenesulfonate and its two metabolites were assayed by HPLC-MS/MS (ESI-), in MRM mode. Calibration curves were prepared for each analyte, in both matrices (diluted blank urine and diluted blank feces).

rat hepatocytes = test: in-vitro metabolism over rat hepatocytes; conditions: 10 μM, up to 120 min at 37° C.
Experimental: as §4

[2] = cited from earlier work
[3] = solid-state stability of trimebutine salts of carboxylic acids; conditions: 1:1 molar ratio; salts dissociate with heat and/or time
[4] = Caco-2 bidirectional permeability; assay type: in vitro ADME, human; conditions: human; for efflux ratio at 2 h: (Papp B − A)/(Papp A − B)
From the text: as §1, §2, §3

Sprague-Dawley rats = test: p.o. pharmacokinetic study in rats, toxicological assessment; assay type: in vivo; conditions: single dose of 230 and 460 mg/kg p.o.
Experimental: In order to evaluate the absolute bioavailability of trimebutine 4-toluenesulfonate (Example 22), an in-vivo pharmacological study was carried out in 6 Sprague-Dawley rats, which were administered a single dose of 230 and 460 mg/kg of the compound by the oral gavage route (p.o.). During this study, assessments included mortality checks and clinical observations. Blood samples were also collected for pharmacokinetic evaluations at 10 time points.

mu-opioid receptors = conditions: cited from earlier work
kappa-opioid receptors = kappa-opioid receptors (Cavia porcellus, UniProt P41144); conditions: cited from earlier work
[5] = 100 μM, 37° C.; simulated gastric fluid pH 1.2 up to 60 min, simulated intestinal fluid pH 6.8 and acetate buffer pH 5 up to 180 min
Experimental: Pyridinium 3-thiocarbamoyl-benzenesulfonate and pyridinium 4-thiocarbamoyl-benzenesulfonate (100 μM) were separately incubated at 37° C. in simulated gastric fluid (pH 1.2; without pepsin) up to 60 min, in simulated intestinal fluid (pH 6.8, without procreatin) up to 180 min, and in acetate buffer (pH 5) up to 180 min. At time points of 0, 30, 60, 120 and 180 min, an aliquot of 10 μL of samples were removed and added into vials containing […] internal standard (labetalol) in a mixture of 25:75 acetonitrile:water. Samples were analyzed by HPLC-MS/MS (ESI-, MRM) to monitor disappearance of its counter-ion over the time.

[6] = Caco-2, apical to basolateral, 2-hr, read-out: % Recovery A − B
[7] = Caco-2, apical to basolateral, 2-hr, read-out: Papp A − B
[8] = Caco-2, class from Papp A-B, read-out: Permeability
[9] = Caco-2, basolateral to apical, 2-hr
[10] = Caco-2, basolateral to apical, 2-hr, read-out: % Recovery B − A

Chain of kappa-opioid receptors (P41144 whole entry): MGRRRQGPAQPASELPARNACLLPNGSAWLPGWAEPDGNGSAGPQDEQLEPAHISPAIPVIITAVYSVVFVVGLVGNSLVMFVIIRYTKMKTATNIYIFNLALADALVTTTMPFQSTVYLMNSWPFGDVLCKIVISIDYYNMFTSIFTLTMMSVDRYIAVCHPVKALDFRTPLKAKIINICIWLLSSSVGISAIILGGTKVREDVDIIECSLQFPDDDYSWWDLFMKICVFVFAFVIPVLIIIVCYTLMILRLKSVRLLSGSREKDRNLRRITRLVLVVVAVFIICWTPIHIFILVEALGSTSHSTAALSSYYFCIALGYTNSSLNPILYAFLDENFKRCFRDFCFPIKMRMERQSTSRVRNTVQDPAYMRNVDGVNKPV

For `NC(=S)c1cccc(S(=O)(=O)O)c1`, the metabolic stability (human hepatocytes) was “remained intact”, the Efflux ratio (Caco-2 cells) was 1.2 and the “% Recovery A − B” value (Caco-2 cells) was 63%. The “Papp A − B” value (Caco-2 cells) was 0.28 ×10⁻⁶ cm/s, the “% Recovery B − A” value (Caco-2 cells) was 82% and the “Papp B − A” value (Caco-2 cells) was 0.33 ×10⁻⁶ cm/s. The Permeability (Caco-2 cells) was “Low (A permeability of (Papp A-B)<1.0×10^−6 cm/s is considered low)”, the “Significant Efflux” value (Caco-2 cells) was “No” and the metabolic stability (dog hepatocytes) was “remained intact”. The “3-cyanobenzenesulfonate found in feces, share of administered dose” value [1] was “about 4%”, the “3-sulfobenzoate found, share of administered dose” value [1] was 0.3% and the “share of total counter-ion administered orally found in feces” value [1] was “About 80%”. For the same compound, the “share of total counter-ion administered orally found in urine” value [1] was about 20% and the metabolic stability (rat hepatocytes) was “remained intact”.

In the case of `CCC(COC(=O)c1cc(OC)c(OC)c(OC)c1)(c1ccccc1)N(C)C` (centres unmarked), the Efflux ratio (Caco-2 cells) is reported as 1.0, the “% Recovery A − B” value (Caco-2 cells) is reported as 51% and the “Papp A − B” value (Caco-2 cells) is reported as 23.2 ×10⁻⁶ cm/s. The “% Recovery B − A” value (Caco-2 cells) was 62%, the “Papp B − A” value (Caco-2 cells) was 24.3 ×10⁻⁶ cm/s and the Permeability (Caco-2 cells) was “High (a permeability of (Papp A-B)>1.0×10^−6 cm/s is considered high)”.

For `NC(=O)c1cccc(S(=O)(=O)O)c1` (as salt: potassium), the melting point was 223 °C.

In the case of `NC(=S)c1ccc(C(=O)O)cc1` [4-thiocarbamoylbenzoic acid], the pKa [2] is given as about 3.3 and the “stability of the trimebutine salt in the solid state” value [3] is given as “unstable salt”.

Compound `O=S(=O)(O)c1ccccn1` [Example 7, 2-Pyridinesulfonic acid] has a melting point of 131 °C.

In the case of `O=S(=O)(O)c1cccnc1` [Example 8, 3-Pyridinesulfonic acid], the melting point is reported as 119 °C.

`N#Cc1cccc(S(=O)(=O)O)c1` [Example 14, 3-Cyano benzenesulfonic acid] gave a melting point of 129 °C.

Compound `CCC(COC(=O)c1cc(OC)c(OC)c(OC)c1)(c1ccccc1)N(C)C` (centres unmarked) [Example 22, trimebutine 4-toluenesulfonate salt] has a recovery at 2 h [4, 6] of 58%, a Papp A→B at 2 h [4, 7] of 23.9 ×10⁻⁶ cm/s and a Papp A→B at 2 h [4, 8] of over 1 ×10⁻⁶ cm/s. For the same compound, the efflux ratio at 2 h ([4]; Caco-2) was 0.9, the Papp B→A at 2 h [4, 9] was 21.7 ×10⁻⁶ cm/s and the recovery at 2 h [4, 10] was 76%. For the same compound, the Permeability (Caco-2 cells) was “high”, the “Significant Efflux” value (Caco-2 cells) was “No” and the bodyweight (Sprague-Dawley rats) was “no change in bodyweight”. For the same compound, the death (Sprague-Dawley rats) was “no death reported” and the toxicity (Sprague-Dawley rats) was “no indication of any toxicity”.

Work on `O=C([O-])c1cccc(S(=O)(=O)O)c1.[Na+]` [Sodium 3-sulfobenzoate, reference compound] yielded a recovery at 2 h [4, 6] of 93%, a Papp A→B at 2 h [4, 7] of 0.59 ×10⁻⁶ cm/s and a Papp A→B at 2 h [4, 8] of under 1 ×10⁻⁶ cm/s. For the same compound, the efflux ratio at 2 h ([4]; Caco-2) was 1, the Papp B→A at 2 h [4, 9] was 0.59 ×10⁻⁶ cm/s and the recovery at 2 h [4, 10] was 115%. For the same compound, the “Significant Efflux” value (Caco-2 cells) was “No”.

In the case of `CCC(COC(=O)c1cc(OC)c(OC)c(OC)c1)(c1ccccc1)N(C)C` (centres unmarked) [Trimebutine, 3,4,5-trimethoxybenzoic acid 2-(dimethylamino)-2-phenylbutylester], the “affinity to mu-opioid receptors” value (mu-opioid receptors) is given as “micromolar”, the “affinity to kappa-opioid receptors” value (kappa-opioid receptors) is given as “micromolar” and the pKa [2] is given as about 6.25. For the same compound, the metabolic stability (human hepatocytes) was “capable of metabolizing trimebutine”, the metabolic stability (dog hepatocytes) was “capable of metabolizing trimebutine” and the metabolic stability (rat hepatocytes) was “capable of metabolizing trimebutine”.

With `O=C(O)c1ccccc1` [benzoic acid] the “stability of the trimebutine salt in the solid state” value [3] was “unstable salt”.

With “pyridinium 3-cyanobenzenesulfonate [Pyridinium 3-cyano-benzenesulfonate]” the Efflux ratio (Caco-2 cells) was 2.0, the “% Recovery A − B” value (Caco-2 cells) was 84% and the “Papp A − B” value (Caco-2 cells) was 0.44 ×10⁻⁶ cm/s. The “% Recovery B − A” value (Caco-2 cells) was 72%, the “Papp B − A” value (Caco-2 cells) was 0.87 ×10⁻⁶ cm/s and the Permeability (Caco-2 cells) was “Low (A permeability of (Papp A-B)<1.0×10^−6 cm/s is considered low)”. The “Significant Efflux” value (Caco-2 cells) was “No”.

For “pyridinium 4-thiocarbamoylbenzenesulfonate”, the “% Recovery A − B” value (Caco-2 cells) was 106%, the “Papp A − B” value (Caco-2 cells) was under 0.54 ×10⁻⁶ cm/s and the “% Recovery B − A” value (Caco-2 cells) was 116%. The “Papp B − A” value (Caco-2 cells) was under 0.68 ×10⁻⁶ cm/s, the Permeability (Caco-2 cells) was “Low (A permeability of (Papp A-B)<1.0×10^−6 cm/s is considered low)” and the “Significant Efflux” value (Caco-2 cells) was “No”. The “stability of counter-ion (disappearance over time)” value [5] was “stable in all these media”.

From patent US20150057316A1, “NOVEL SULFONATE-BASED TRIMEBUTINE SALTS” (GICARE PHARMA INC., priority 2012, published 2015)
